The results in this text go back to US20120129833A1, “CYCLIC KETOENOLS FOR THERAPY” (BAYER PHARMA AKTIENGESELLSCHAFT, priority 2010, published 2012).

The target in assay [1] is T1, recombinant human ACC1 (acetyl-CoA carboxylase 1) (Homo sapiens, UniProt Q13085).
T1 construct: NM_198834, amino acids 39—end; FLAG (C); made in house; host or cells: baculovirus-transfected insect cells (Hi5)
The assay can be described thus: Human ACC1 enzyme assay (HTRF ADP detection).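 Note: ADP by-product quantified by competitive HTRF immunoassay with europium cryptate anti-ADP antibody and d2-labelled ADP, read after 1 h binding at 22 °C, enzyme near 2.5 ng/µl.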 The class given is biochemical. The note with it: 50 μM ATP, 20 μM acetyl-CoA, 15 min pre-incubation, 20 min at 22° C.; read-out: ACC 1 IC50. Background: In TR-FRET formats the signal depends on donor and acceptor labels being close together.
Procedure: The basic principle of the assay is the measurement of adenosine diphosphate (ADP), which is formed as a by-product, by means of an HTRF®-based competitive immunoassay (HTRF=Homogeneous Time Resolved Fluorescence).
(§1) The amount of complex of d2-labelled ADP and europium cryptate-labelled anti-ADP antibody was then determined by measuring the resonance energy transfer of europium cryptate to d2.

The target in assay [2] is T2, ACC2 (acetyl-CoA carboxylase 2) (Homo sapiens, UniProt O00763).
T2 construct: catalogue no; 50201, amino acids 39—end, expressed in baculovirus-transfected Sf9 insect cells; His (C); purchased BPS Bioscience (San Diego, Calif.) 50201; host or cells: baculovirus-transfected Sf9 insect cells
T2 sequence (O00763 39-2458 limits assumed): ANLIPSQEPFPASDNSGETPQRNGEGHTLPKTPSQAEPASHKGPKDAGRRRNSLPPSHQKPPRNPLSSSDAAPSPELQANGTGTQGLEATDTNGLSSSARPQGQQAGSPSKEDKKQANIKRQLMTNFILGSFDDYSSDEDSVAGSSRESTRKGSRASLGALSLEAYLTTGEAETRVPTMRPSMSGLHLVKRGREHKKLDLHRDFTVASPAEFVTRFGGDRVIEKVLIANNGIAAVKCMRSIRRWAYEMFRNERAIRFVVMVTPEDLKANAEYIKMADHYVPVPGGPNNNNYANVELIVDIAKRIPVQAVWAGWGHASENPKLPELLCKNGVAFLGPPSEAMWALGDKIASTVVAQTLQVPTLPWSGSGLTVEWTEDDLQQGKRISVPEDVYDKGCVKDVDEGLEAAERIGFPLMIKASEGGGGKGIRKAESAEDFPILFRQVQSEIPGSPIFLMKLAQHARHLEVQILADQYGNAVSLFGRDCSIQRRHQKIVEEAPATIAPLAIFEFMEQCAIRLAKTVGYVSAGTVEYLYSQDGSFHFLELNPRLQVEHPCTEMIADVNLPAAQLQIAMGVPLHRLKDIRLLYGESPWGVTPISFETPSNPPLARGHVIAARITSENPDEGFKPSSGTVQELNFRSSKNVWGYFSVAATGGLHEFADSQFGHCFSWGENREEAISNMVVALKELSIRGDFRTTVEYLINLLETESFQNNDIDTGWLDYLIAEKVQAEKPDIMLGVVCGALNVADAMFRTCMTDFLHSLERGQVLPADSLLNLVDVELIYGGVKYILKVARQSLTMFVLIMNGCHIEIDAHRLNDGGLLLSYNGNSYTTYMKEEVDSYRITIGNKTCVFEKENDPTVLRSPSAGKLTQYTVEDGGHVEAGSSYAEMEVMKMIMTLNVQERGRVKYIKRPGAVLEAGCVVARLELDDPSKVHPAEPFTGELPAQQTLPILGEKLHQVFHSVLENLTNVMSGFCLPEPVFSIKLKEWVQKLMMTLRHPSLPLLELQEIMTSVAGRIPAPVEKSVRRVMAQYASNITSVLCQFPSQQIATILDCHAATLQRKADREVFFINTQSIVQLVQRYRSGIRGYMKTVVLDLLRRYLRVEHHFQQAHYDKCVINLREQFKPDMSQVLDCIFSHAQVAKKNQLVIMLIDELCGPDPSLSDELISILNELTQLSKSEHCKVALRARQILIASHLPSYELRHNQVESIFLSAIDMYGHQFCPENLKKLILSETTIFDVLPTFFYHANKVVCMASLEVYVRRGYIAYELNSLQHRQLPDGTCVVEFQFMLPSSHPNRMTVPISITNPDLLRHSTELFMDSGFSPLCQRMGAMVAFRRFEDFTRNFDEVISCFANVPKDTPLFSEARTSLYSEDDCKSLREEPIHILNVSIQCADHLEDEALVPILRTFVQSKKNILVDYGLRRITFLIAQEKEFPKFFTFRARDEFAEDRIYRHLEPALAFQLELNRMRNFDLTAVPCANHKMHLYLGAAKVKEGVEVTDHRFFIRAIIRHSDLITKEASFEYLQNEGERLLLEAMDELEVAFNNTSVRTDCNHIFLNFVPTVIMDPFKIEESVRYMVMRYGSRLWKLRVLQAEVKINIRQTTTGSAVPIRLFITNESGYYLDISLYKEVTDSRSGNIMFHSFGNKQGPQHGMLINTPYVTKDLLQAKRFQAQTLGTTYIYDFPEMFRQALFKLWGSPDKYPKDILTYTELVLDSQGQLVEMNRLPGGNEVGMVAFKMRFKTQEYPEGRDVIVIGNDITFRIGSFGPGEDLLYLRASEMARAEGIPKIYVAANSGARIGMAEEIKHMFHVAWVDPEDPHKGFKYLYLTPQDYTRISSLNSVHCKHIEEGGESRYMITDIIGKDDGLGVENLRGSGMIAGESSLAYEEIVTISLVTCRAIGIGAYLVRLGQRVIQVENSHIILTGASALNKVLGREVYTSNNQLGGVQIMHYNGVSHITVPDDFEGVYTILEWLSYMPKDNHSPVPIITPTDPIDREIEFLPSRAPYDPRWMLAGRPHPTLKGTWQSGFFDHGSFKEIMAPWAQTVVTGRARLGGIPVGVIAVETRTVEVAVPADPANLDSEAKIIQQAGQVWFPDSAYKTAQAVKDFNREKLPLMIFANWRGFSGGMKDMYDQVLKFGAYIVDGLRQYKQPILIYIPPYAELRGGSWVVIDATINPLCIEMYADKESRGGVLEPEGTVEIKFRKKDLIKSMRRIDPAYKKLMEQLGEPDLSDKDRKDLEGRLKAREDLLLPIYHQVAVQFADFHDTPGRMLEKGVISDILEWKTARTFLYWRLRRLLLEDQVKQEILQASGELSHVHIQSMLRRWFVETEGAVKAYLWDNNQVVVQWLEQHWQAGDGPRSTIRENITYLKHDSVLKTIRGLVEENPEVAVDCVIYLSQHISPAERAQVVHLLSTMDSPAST
Briefly: Human ACC2 enzyme assay (HTRF ADP detection). It is filed as biochemical. The note with it: 20 μM acetyl-CoA, 15 min pre-incubation, 20 min at 22° C.; read-out: ACC 2 IC50.
Procedure: The inhibitory activity of the substances of this invention with regard to acetyl-CoA carboxylase 2 (ACC2) was measured using the ACC2 assay described in the paragraphs below. The basic principle of the assay is the measurement of adenosine diphosphate (ADP), which is formed as a by-product, by means of an HTRF®-based competitive immunoassay (HTRF=Homogeneous Time Resolved Fluorescence).
as §1

Consider `COCCC1CCCC2(C1)NC(=O)C(c1c(C)ccc(-c3ccc(Cl)cc3)c1C)=C2O` (centres unmarked) [Example 1-55, 3-(4′-chloro-2,4-dimethylbiphenyl-3-yl)-4-hydroxy-7-(2-methoxyethyl)-1-azaspiro[4.5]dec-3-en-2-one], for which the half-maximal inhibitory concentration (IC50) (in general, the point on the concentration scale where inhibition reaches its midpoint) in assay [1] came out at 918 nM; in assay [2] it was 465 nM.

In the case of `COCC1CCC2(CC1)NC(=O)C(c1cc(-c3ccc(Cl)cc3)ccc1C)=C2O` (centres unmarked) [Example 1-56, 3-(4′-chloro-4-methylbiphenyl-3-yl)-4-hydroxy-8-(methoxymethyl)-1-azaspiro[4.5]dec-3-en-2-one], the IC50 was 430 nM in assay [1] and 320 nM in assay [2].

As for `COCCC1CCC2(CC1)NC(=O)C(c1c(C)ccc(-c3ccc(Cl)cc3)c1C)=C2O` (centres unmarked) [Example 1-57, 3-(4′-chloro-2,4-dimethylbiphenyl-3-yl)-4-hydroxy-8-(2-methoxyethyl)-1-azaspiro[4.5]dec-3-en-2-one], the concentration for half-maximal inhibition (IC50) in assay [1] came to 790 nM; in assay [2], 220 nM.

Take `O=C1NC2(CCC3(CC2)OCCCO3)C(O)=C1c1cc(-c2ccc(Cl)cc2)ccc1Cl` [Example 1-58, 3-(4,4′-dichlorobiphenyl-3-yl)-4-hydroxy-9,13-dioxa-1-azadispiro[4.2.5.2]pentadec-3-en-2-one]: the results for the IC50 in assay [1] and in assay [2] were 362 nM and 11500 nM, respectively.

For the compound `Cc1ccc(-c2ccc(Cl)cc2)cc1C1=C(O)C2(CCC3(CC2)OCCCO3)NC1=O` [Example 1-59, 3-(4′-chloro-4-methylbiphenyl-3-yl)-4-hydroxy-9,13-dioxa-1-azadispiro[4.2.5.2]pentadec-3-en-2-one], the 50% inhibitory concentration (IC50) came to 427 nM in assay [1] and 5200 nM in assay [2].

For `Cc1ccc(-c2ccc(Cl)cc2)cc1C1=C(O)C2(CCC3(CC2)OCCO3)NC1=O` [Example 1-60, 11-(4′-chloro-4-methylbiphenyl-3-yl)-12-hydroxy-1,4-dioxa-9-azadispiro[4.2.4.2]tetradec-11-en-10-one], the half-inhibitory concentration (IC50) is 237 nM in assay [1] and 2330 nM in assay [2].

Turning to `O=C1NC2(CCC3(CC2)OCCO3)C(O)=C1c1cc(-c2ccc(Cl)cc2)ccc1Cl` [Example 1-61, 11-(4,4′-dichlorobiphenyl-3-yl)-12-hydroxy-1,4-dioxa-9-azadispiro[4.2.4.2]tetradec-11-en-10-one], the concentration for half-maximal inhibition (IC50) in assay [1] turned out to be 227 nM; in assay [2] it was 3910 nM.

Regarding `Cc1ccc(-c2ccc(Cl)cc2)cc1C1=C(O)C2(CCC3(CC2)OCC(C)O3)NC1=O` (centres unmarked) [Example 1-63, 11-(4′-chloro-4-methylbiphenyl-3-yl)-12-hydroxy-2-methyl-1,4-dioxa-9-azadispiro[4.2.4.2]tetradec-11-en-10-one], the values for the half-inhibitory concentration (IC50) in assay [1] and in assay [2] were 391 nM and 4220 nM, respectively.

Turning to `Cc1ccc(-c2ccc(Cl)cc2)cc1C1=C(O)C2(CCC3(CC2)OC(C)C(C)O3)NC1=O` (centres unmarked) [Example 1-64, 11-(4′-chloro-4-methylbiphenyl-3-yl)-12-hydroxy-2,3-dimethyl-1,4-dioxa-9-azadispiro[4.2.4.2]tetradec-11-en-10-one], the half-inhibitory concentration (IC50) is 985 nM in assay [1] and 16400 nM in assay [2].

Regarding `CC1(C)COC2(CCC3(CC2)NC(=O)C(c2cc(-c4ccc(Cl)cc4)ccc2Cl)=C3O)OC1` [Example 1-65, 3-(4,4′-dichlorobiphenyl-3-yl)-4-hydroxy-11,11-dimethyl-9,13-dioxa-1-azadispiro[4.2.5.2]pentadec-3-en-2-one], the IC50 in assay [1] was found to be 934 nM; in assay [2], 9470 nM.

For the compound `Cc1ccc(-c2ccc(Cl)cc2)cc1C1=C(O)C2(CCC3(CC2)OCC(C)CO3)NC1=O` (centres unmarked) [Example 1-66, 3-(4′-chloro-4-methylbiphenyl-3-yl)-4-hydroxy-1′-methyl-9,13-dioxa-1-azadispiro[4.2.5.2]pentadec-3-en-2-one], the figures for the IC50 in assay [1] and in assay [2] were 409 nM and 1540 nM, respectively.

For the compound `Cc1ccc(-c2ccc(Cl)cc2)cc1C1=C(O)C2(CCC3(CC2)OCC(C)(C)CO3)NC1=O` [Example 1-67, 3-(4′-chloro-4-methylbiphenyl-3-yl)-4-hydroxy-11,11-dimethyl-9,13-dioxa-1-azadispiro[4.2.5.2]pentadec-3-en-2-one], the IC50 in assay [1] was 668 nM; in assay [2] it was 1440 nM.

For `CC1COC2(CCC3(CC2)NC(=O)C(c2cc(-c4ccc(Cl)cc4)ccc2Cl)=C3O)O1` (centres unmarked) [Example 1-68, 11-(4,4′-dichlorobiphenyl-3-yl)-12-hydroxy-2-methyl-1,4-dioxa-9-azadispiro[4.2.4.2]tetradec-11-en-10-one], the 50% inhibitory concentration (IC50) in assay [1] came out at 489 nM; in assay [2] it was 4860 nM.

Consider `CC1COC2(CCC3(CC2)NC(=O)C(c2cc(-c4ccc(Cl)cc4)ccc2Cl)=C3O)OC1` (centres unmarked) [Example 1-69, 3-(4,4′-dichlorobiphenyl-3-yl)-4-hydroxy-1′-methyl-9,13-dioxa-1-azadispiro[4.2.5.2]pentadec-3-en-2-one], for which the half-inhibitory concentration (IC50) in assay [1] is 647 nM; in assay [2], 11000 nM.

`Cc1ccc(-c2ccc(Cl)cc2)c(C)c1C1=C(O)C2(CCC3(CC2)OCCO3)NC1=O` [Example 1-70, 11-(4′-chloro-2,4-dimethylbiphenyl-3-yl)-12-hydroxy-1,4-dioxa-9-azadispiro[4.2.4.2]tetradec-11-en-10-one]: the IC50 in assay [1] is 675 nM; in assay [2] it was 1840 nM.

Take `CC1OC2(CCC3(CC2)NC(=O)C(c2cc(-c4ccc(Cl)cc4)ccc2Cl)=C3O)OC1C` (centres unmarked) [Example 1-71, 11-(4,4′-dichlorobiphenyl-3-yl)-12-hydroxy-2,3-dimethyl-1,4-dioxa-9-azadispiro[4.2.4.2]tetradec-11-en-10-one]: the IC50 in assay [1] is 661 nM; in assay [2], over 20000 nM.

Take `COC1CCCC2(C1)NC(=O)C(c1c(C)ccc(-c3ccc(Cl)cc3)c1C)=C2O` (centres unmarked) [Example 1-72, 3-(4′-chloro-2,4-dimethylbiphenyl-3-yl)-4-hydroxy-7-methoxy-1-azaspiro[4.5]dec-3-en-2-one]: the results for the IC50 in assay [1] and in assay [2] were 1180 nM and 2340 nM, respectively.

Regarding `CCOC1CCCC2(C1)NC(=O)C(c1c(C)ccc(-c3ccc(Cl)cc3)c1C)=C2O` (centres unmarked) [Example 1-73, 3-(4′-chloro-2,4-dimethylbiphenyl-3-yl)-7-ethoxy-4-hydroxy-1-azaspiro[4.5]dec-3-en-2-one], the 50% inhibitory concentration (IC50) in assay [1] was 912 nM; in assay [2], 4970 nM.

`CCOC1CCC2(CC1)NC(=O)C(c1c(C)cc(C)c(-c3ccc(Cl)cc3)c1C)=C2O` (centres unmarked) [Example 1-75, 3-(4′-chloro-2,4,6-trimethylbiphenyl-3-yl)-8-ethoxy-4-hydroxy-1-azaspiro[4.5]dec-3-en-2-one]: the IC50 amounted to 7970 nM in assay [1] and 376 nM in assay [2].

On to `Cc1ccc(-c2ccc(Cl)cc2)cc1C1=C(O)[C@]2(CC[C@H](C)CC2)NC1=O` [Example 1-76, 3-(4′-chloro-4-methylbiphenyl-3-yl)-4-hydroxy-8-methyl-1-azaspiro[4.5]dec-3-en-2-one], for which the half-maximal inhibitory concentration (IC50) was determined as 201 nM in assay [1] and 233 nM in assay [2].

Consider `Cc1ccc(-c2ccc(Cl)cc2)cc1C1=C(O)C2(CCCCC2)NC1=O` [Example 1-77, 3-(4′-chloro-4-methylbiphenyl-3-yl)-4-hydroxy-1-azaspiro[4.5]dec-3-en-2-one], for which the half-maximal inhibitory concentration (IC50) was 327 nM in assay [1] and 860 nM in assay [2].

As to `Cc1ccc(-c2ccc(Cl)cc2)cc1C1=C(O)C(C)(C(C)C)NC1=O` (centres unmarked) [Example 1-78, 3-(4′-chloro-4-methylbiphenyl-3-yl)-4-hydroxy-5-methyl-5-(propan-2-yl)-1,5-dihydro-2H-pyrrol-2-one], the results for the IC50 in assay [1] and in assay [2] were 795 nM and 1730 nM, respectively.
